Measured values taken from ChEMBL document CHEMBL1201862, “PubChem BioAssay data set” (2004).
Active and inactive are the calls of the source. For most assays here, no stated cut-off is given here; in the data, actives have a measured EC50 and inactives only a lower limit.

Experiments:
[1] = molecular target: T1, Serine/threonine-protein phosphatase (Candida dubliniensis (strain CD36 / CBS 7987 / NCPF 3949 / NRRLY-17841) (Yeast), UniProt B9W6M3); assay: calcineurin pathway inhibitors in yeast reporter, dose response, S. cerevisiae, CDRE-lacZ, luminescence, secondary (AID 2388); assay type: functional, cell-based;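 further: yeast reporter cells carrying a calcineurin-responsive lacZ construct stimulated with calcium chloride; luminescent beta-galactosidase reporter signal in whole cells rather than isolated phosphatase activity; potency for inhibition where a drop in reporter signal means calcineurin blockade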
T1 sequence (B9W6M3 whole entry): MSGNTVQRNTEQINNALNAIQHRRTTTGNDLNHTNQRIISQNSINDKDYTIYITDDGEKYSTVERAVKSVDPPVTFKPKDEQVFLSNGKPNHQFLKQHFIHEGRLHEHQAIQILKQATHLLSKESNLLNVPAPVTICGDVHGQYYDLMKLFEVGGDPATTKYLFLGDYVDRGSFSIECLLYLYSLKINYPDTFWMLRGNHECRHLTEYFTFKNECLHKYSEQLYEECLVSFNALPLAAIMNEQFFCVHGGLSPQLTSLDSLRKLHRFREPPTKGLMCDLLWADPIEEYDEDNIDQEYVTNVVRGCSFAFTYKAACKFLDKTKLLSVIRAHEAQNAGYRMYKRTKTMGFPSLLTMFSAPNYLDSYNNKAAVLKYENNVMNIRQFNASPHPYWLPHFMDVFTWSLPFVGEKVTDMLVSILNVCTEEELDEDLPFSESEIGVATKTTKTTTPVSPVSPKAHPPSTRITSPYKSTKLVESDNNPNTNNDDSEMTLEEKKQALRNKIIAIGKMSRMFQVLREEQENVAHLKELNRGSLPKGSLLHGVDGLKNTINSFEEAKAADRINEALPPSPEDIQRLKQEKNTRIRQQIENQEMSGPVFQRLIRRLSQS

[2] = C. albicans growth with fluconazole, confirmation, fluorescence, retest (AID 2467); assay type: functional, cell-based
[3] = molecular target: ATP-dependent molecular chaperone HSP82 (Candida albicans (strain WO-1) (Yeast), UniProt C4YTQ8); assay: loss of DOC-induced GRE-beta-galactosidase reporter signal, dose response, Hsp90 inhibitor project, S. cerevisiae, luminescence (AID 2400); assay type: functional, cell-based;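 further: beta-galactosidase luminescence from glucocorticoid response element reporter as proxy for Hsp90 function; inhibitor potency where signal loss means Hsp90 inhibition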
[4] = NIH-3T3 fibroblast cytotoxicity, dose response, cytotoxicity control, cell-based, fluorescence, Alamar Blue, secondary assay (AID 2327); assay type: functional;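 further: NIH-3T3 mouse fibroblasts cultured with fluconazole at 8 µg/mL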
[5] = inhibitors of intracellular T. cruzi replication, confirmation, NIH3T3 host cells, beta-gal luminescence (AID 2044); assay type: functional, cell-based;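 further: intracellular parasites grown in NIH/3T3 mouse fibroblasts as host cells; luminescent beta-galactosidase reporter signal from transgenic T. cruzi replicating inside host cells; inhibitors lower the luminescence signal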
[6] = cytotoxicity toward NIH3T3 fibroblasts, dose response, counter-screen, cell-based, ATP luminescence, mouse fibroblasts (AID 2010); assay type: functional;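 further: cells exposed to compound for about 90 hours before reading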
Protein Wnt-3a = Protein Wnt-3a (Mus musculus, UniProt P27467); assay: Wnt3a-driven reporter signaling inhibition, dose response, selectivity assay for Gli-SUFU antagonist project, Wnt-LIGHT cells, luminescence (AID 651570); assay type: functional; settings: read-out: IC50_Mean;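 further: Wnt-LIGHT reporter cells stimulated with conditioned medium from Wnt3a-producing cells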
Streptococcus = assay: Group A Streptococcus viability loss, dose response, counter-screen for streptokinase expression inhibitor project, luminescence, BacTiterGlo (AID 1915); assay type: functional, organism-based;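 further: potency for reduction of bacterial viability or growth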
INS1 = assay: beta cell apoptosis inhibitors, cytokine rescue, dose response, luminescence, retest (AID 449756); assay type: functional, cell-based; settings: Rattus norvegicus;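 further: cell death triggered by IL-1 beta plus TNF-alpha plus IFN-gamma mixture; protective hits raise ATP signal compared with cytokine alone wells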
[7] = tested on: Streptococcus sp. 'group A'; assay: growth inhibition of control SK(-) GAS strain, dose response, counter-screen for streptokinase expression inhibitor project, luminescence, kanamycin, BacTiterGlo, confirmation (AID 1900); assay type: functional, organism-based
Streptokinase A = molecular target: T2, Streptokinase A (Streptococcus pyogenes serotype M1, UniProt P10520); assay: S. pyogenes streptokinase expression inhibitors, potency, dose response, plasminogen activation absorbance, OD405 (AID 1914); assay type: functional, Streptococcus pyogenes M1 GAS;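 further: secreted streptokinase activity via plasminogen activation per viability signal from cell pellet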
T2 sequence (P10520 whole entry): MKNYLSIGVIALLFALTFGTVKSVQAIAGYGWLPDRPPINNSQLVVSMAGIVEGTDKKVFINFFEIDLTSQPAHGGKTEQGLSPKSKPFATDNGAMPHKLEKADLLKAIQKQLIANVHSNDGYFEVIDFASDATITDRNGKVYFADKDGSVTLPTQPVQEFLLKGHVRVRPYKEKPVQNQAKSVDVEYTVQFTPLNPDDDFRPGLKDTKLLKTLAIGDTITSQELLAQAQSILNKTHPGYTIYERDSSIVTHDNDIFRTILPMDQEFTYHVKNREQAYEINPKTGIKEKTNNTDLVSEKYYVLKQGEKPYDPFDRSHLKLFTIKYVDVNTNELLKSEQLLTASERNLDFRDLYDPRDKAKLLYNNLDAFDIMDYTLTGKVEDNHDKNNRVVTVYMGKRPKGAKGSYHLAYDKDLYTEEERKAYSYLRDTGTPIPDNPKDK

[8] = molecular target: T3, High affinity choline transporter 1 (Homo sapiens, UniProt Q9GZV3); assay: CHT inhibitors, dose response, cell-based, 5-point CRC, membrane potential dye (AID 504840); assay type: functional
T3 sequence (Q9GZV3 whole entry): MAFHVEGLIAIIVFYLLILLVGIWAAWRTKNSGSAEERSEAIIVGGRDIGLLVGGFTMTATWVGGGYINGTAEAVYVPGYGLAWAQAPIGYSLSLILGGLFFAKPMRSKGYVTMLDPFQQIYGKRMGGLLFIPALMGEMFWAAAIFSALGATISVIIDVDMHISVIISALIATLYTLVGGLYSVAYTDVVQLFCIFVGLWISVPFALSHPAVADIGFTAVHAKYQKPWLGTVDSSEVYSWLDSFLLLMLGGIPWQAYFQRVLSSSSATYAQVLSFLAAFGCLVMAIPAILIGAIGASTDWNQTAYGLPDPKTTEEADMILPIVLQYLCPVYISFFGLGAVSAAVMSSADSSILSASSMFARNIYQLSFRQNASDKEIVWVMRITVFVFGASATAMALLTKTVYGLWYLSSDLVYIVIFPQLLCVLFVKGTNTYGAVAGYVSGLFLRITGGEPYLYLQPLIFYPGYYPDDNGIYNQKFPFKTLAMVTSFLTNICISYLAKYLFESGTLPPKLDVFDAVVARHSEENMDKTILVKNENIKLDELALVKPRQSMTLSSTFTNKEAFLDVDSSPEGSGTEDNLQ

[9] = control 3'UTR Renilla luciferase suppression, dose response, counter-screen for Shn3 inhibitor project, cell-based, Clone20-Shn3RL, cherry-picked (AID 624133); assay type: functional
[10] = HepG2 cell cytotoxicity, dose response, cytotoxicity control for Shn3 inhibitor project, CellTiter-Glo, cherry-picked (AID 624134); assay type: functional, cell-based
[11] = Shn3 3'UTR reporter inhibitors, dose response, cell-based, Clone20 osteoblasts, firefly luciferase, cherry-picked (AID 624132); assay type: functional;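 further: firefly luciferase luminescence from reporter carrying the Shn3 3'UTR in osteoblasts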

Chain of ATP-dependent molecular chaperone HSP82 (C4YTQ8 whole entry): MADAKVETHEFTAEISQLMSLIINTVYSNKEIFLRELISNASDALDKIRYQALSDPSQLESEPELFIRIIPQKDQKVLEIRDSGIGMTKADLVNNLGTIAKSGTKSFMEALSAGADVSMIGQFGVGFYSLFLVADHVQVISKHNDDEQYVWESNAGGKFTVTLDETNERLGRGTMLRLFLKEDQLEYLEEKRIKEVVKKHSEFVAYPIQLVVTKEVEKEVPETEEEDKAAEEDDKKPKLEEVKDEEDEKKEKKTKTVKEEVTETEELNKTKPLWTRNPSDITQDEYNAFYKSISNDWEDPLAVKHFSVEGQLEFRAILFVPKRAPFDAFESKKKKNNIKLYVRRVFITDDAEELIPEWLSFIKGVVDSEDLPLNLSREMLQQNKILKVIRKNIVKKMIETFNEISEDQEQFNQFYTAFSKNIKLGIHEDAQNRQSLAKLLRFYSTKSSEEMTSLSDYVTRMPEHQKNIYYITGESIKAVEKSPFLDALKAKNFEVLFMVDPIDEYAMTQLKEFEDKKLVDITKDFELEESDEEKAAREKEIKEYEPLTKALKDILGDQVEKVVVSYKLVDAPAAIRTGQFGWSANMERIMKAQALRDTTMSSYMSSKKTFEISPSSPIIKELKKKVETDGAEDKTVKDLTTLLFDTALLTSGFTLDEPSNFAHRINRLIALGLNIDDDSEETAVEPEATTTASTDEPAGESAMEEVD
Chain of Protein Wnt-3a (P27467 whole entry): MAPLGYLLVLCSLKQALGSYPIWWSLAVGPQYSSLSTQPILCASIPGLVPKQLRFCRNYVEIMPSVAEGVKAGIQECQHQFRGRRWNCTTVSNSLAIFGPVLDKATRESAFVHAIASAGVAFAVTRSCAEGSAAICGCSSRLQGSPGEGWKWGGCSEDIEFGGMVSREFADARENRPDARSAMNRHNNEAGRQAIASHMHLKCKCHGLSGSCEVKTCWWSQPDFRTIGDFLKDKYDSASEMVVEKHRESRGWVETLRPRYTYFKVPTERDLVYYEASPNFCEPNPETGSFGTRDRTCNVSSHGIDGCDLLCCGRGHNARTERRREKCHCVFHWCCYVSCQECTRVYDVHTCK

| Structure (SMILES) | EC50 [1] | EC50 [2] | EC50 [3] | EC50 [4] | IC50 (Protein Wnt-3a) | other results |
| --- | --- | --- | --- | --- | --- | --- |
| O=C(c1ccc(Cn2c(=O)[nH]c3ccccc3c2=O)cc1)N1CCN(c2ccc(F)cc2)CC1 | > 180 µM (inactive) | 912 nM (active) | > 150 µM (inactive) | 14.3 µM (active) | – | – |
| CCCc1c(CC)c(=N)c2ccccc2n1C | – | – | – | – | 11.3 µM (active) | EC50 [5]: 121 nM (active); EC50 [6]: > 60 µM (not active) |
| CC(C)C(=O)NC(c1cccs1)c1cc([N+](=O)[O-])c2cccnc2c1O (stereo not drawn) | > 180 µM (inactive) | 242 nM (active) | 24.6 µM (active) | 13.4 µM (active) | – | EC50 (Streptococcus): 6.98 µM (active); AC50 (INS1): 3.87 µM (active); EC50 [7]: 2.59 µM (active); EC50 (Streptokinase A): > 150 µM (not active) |
| O=C(Nc1ccc(C(F)(F)F)cc1)C1CCN(S(=O)(=O)c2ccc(N3CCCC3=O)cc2)CC1 | – | – | – | – | 2.18 µM (active) | AC50 (INS1): 3.1 µM (active) |
| O=C(Nc1nnc(CCc2ccccc2)s1)c1ccco1 | > 180 µM (inactive) | 1080 nM (active) | > 150 µM (inactive) | > 150 µM (inactive) | – | – |
| C[C@@H]1COC(=O)[C@H](NC(=O)OCC2c3ccccc3-c3ccccc32)C/C=C\C[C@@H](CC(=O)N[C@@H](CO)Cc2ccccc2)C(=O)N1 | – | – | – | – | 12.3 µM (active) | – |
| O=C(N/N=C/c1cc2ccccc2nc1Cl)[C@H]1C[C@@H]1c1ccccc1 | – | – | – | – | 39.9 µM (inactive) | – |
| Cn1c(N2CCOCC2)c(/C=N/OC(=O)c2ccc(F)cc2)c2ccccc21 | > 180 µM (inactive) | 382 nM (active) | > 160 µM (inactive) | > 160 µM (inconclusive) | – | EC50 [5]: 596 nM (active); EC50 [6]: 1.98 µM (active); IC50 [8]: 15.9 µM (active) |
| Sc1nnc(C2CCCCC2)n1/N=C/c1ccc(Br)s1 | > 180 µM (inactive) | 1070 nM (active) | 18.9 µM (active) | > 150 µM (inactive) | – | – |
| C[C@@H]1CC[C@@]2(NC1)O[C@H]1C[C@H]3[C@@H]4CC=C5C[C@@H](O)CC[C@]5(C)[C@H]4CC[C@]3(C)[C@H]1[C@@H]2C | > 180 µM (inactive) | 272 nM (active) | > 160 µM (inactive) | > 160 µM (inconclusive) | – | – |
| CCC(=O)NC(c1ccco1)c1cc(Cl)c2cccnc2c1O (stereo not drawn) | > 180 µM (inactive) | 560 nM (active) | > 150 µM (inactive) | 24.9 µM (active) | – | EC50 [5]: 1970 nM (active); AC50 [9]: 3.57 µM (active); EC50 [6]: 7.21 µM (active); AC50 [10]: 7.81 µM (active); AC50 [11]: 1.31 µM (active) |
| Cc1cc(C)c[n+](C(C)C(=O)c2ccc(-c3ccccc3)cc2)c1 (stereo not drawn) | – | – | – | – | 8.95 µM (active) | – |
